Measurements as given in patent US20230192691A1, “HETEROCYCLIC COMPOUNDS AS BTK INHIBITORS” (Beijing InnoCare Pharma Tech Co., Ltd., priority 2020, published 2023).

Key:
[1] = molecular target: T1, human recombinant BTK C481S protein (Homo sapiens, UniProt Q06187, C481S); assay: BTK C481S activity inhibition assay (HTRF in vitro kinase assay); assay type: biochemical; conditions: 35 μM ATP, 1.5 ng/μL BTK C481S
T1 construct: made in house
Method: In vitro kinase assay was used to evaluate the effects of compounds of the present invention on BTK C481S activity (Table 1).
(§1) By using the homogeneous time-resolved fluorescence (HTRF) kinase detection kit (Cisbio, catalog number 62TK0PEC), the enzymatic activity of BTK C481S is determined by detecting the phosphorylation level of the substrate in the kinase reaction. The reaction buffer contains the enzyme reaction buffer (1×) from the kit, 5 mM MgCl2, 1 mM DTT, 10 nM SEB, and 0.01% Tween-20; the kinase reaction solution contains human recombinant BTK C481S protein (purified in-house) diluted to 1.5 ng/μL with the reaction buffer; the substrate reaction solution contains biotin-labeled tyrosine kinase substrate diluted to 0.5 μM with the reaction buffer and 35 μM ATP; the detection buffer contains Eu^3+-labeled cage antibody diluted to 0.05 ng/μL and streptavidin-labeled XL665 antibody diluted to 31.25 nM with the reaction buffer; the test compound is dissolved and diluted to 100 μM with DMSO, followed by a 4-fold serial dilution with DMSO to the lowest concentration of 6.1 nM and finally 40-time dilution with the reaction buffer for each concentration point. If the IC50 value of the compound is very low, the initial concentration of the compound is reduced.
(§2) Add 4 μL test compound solution and 2 μL kinase reaction solution to a 384-well detection plate (Corning, catalog number 3674), mix well and incubate at room temperature for 15 minutes; add 4 μL substrate reaction solution and incubate for 50 minutes; add 10 μL detection buffer, mix well and stand for 60 minutes; detect signal at 620 nm and 665 nm using an Envision plate reader (Perkin Elmer). The signal value (absorbance at 665 nm/absorbance at 620 nm) is positively correlated with the degree of phosphorylation of the substrate, thereby detecting the kinase activity of BTK C481S. In this experiment, the group without BTK is the negative control (100% inhibition) and the group with BTK C481 S but no compound is the positive control (0% inhibition). The inhibition curve is plotted and the corresponding IC50 value of the test compound is calculated using XLfit software (TD Business Solutions Ltd., UK).

[2] = molecular target: T2, human-derived recombinant BTK protein (Homo sapiens, UniProt Q06187); assay: BTK activity inhibition assay (HTRF in vitro kinase assay); assay type: biochemical; conditions: 40 μM ATP, 0.2 ng/μL BTK
T2 construct: purchased Carna Biosciences 08-180
T2 sequence (Q06187 whole entry): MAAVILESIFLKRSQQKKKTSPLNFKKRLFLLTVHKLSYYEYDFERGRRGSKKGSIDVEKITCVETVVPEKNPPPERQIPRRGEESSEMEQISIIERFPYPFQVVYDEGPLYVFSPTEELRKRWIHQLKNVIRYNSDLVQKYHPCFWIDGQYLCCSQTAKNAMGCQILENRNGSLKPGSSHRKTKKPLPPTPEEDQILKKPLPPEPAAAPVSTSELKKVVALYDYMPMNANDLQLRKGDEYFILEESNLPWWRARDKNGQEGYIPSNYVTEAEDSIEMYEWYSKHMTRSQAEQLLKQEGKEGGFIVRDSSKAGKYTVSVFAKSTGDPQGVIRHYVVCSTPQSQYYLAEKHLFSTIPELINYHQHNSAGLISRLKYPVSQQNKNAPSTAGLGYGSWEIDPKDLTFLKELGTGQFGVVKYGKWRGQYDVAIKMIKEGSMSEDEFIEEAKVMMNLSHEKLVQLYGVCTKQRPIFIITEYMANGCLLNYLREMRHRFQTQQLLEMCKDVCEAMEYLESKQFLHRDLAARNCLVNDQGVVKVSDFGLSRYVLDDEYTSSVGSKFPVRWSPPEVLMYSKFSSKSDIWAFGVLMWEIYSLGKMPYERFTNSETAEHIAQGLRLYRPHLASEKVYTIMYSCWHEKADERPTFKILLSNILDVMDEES
Method: In vitro kinase assay was used to evaluate the effects of compounds of the present invention on BTK activity (Table 1).
as §1, with “BTK” for “BTK C481S”, “SEB” for “SEB,”, “human-derived” for “human”, “(Carna Biosciences, Catalog No. 08-180)” for “(purified in-house)”, “0.2” for “1.5”, “40” for “35”
as §2, with “BTK.” for “BTK C481S.”, “BTK” for “BTK C481 S”, “(ID” for “(TD”

T1 sequence (Q06187 whole entry C481S): as the sequence (Q06187 whole entry) above, with C481S counted along it

| IC50 [1] | IC50 [2] | Compound |
| --- | --- | --- |
| 2.6 nM | 9.4 nM | COc1ccc(F)cc1C(=O)NCc1ccc(-c2nc(N3CCOCC3)n3ncnc(N)c23)cc1 [Compound 45, N-(4-(4-amino-7-morpholinoimidazo[5,1-f][1,2,4]triazin-5-yl)benzyl)-5-fluoro-2-methoxybenzamide] |
| 3.6 nM | 14 nM | COc1ccccc1C(=O)NCc1ccc(-c2nc(C3CCC(CO)OC3)n3ccnc(N)c23)cc1 (stereo not shown) [Compound 10, N-(4-(8-amino-3-(6-(hydroxymethyl)tetrahydro-2H-pyran-3-yl)imidazo[1,5-a]pyrazin-1-yl)benzyl)-2-methoxybenzamide] |
| 1.3 nM | 2.7 nM | COc1ccc(F)cc1C(=O)NCc1ccc(-c2nc(N3CCC(C)(C(=O)O)CC3)n3ccnc(N)c23)cc1 [Compound 27, 1-(8-amino-1-(4-((5-fluoro-2-methoxybenzamido)methyl)phenyl)imidazo[1,5-a]pyrazin-3-yl)-4-methylpiperidine-4-carboxylic acid] |
| 1.1 nM | 1.8 nM | COc1ccc(F)cc1C(=O)NCc1ccc(-c2nc(C3CCCOC3)n3ncnc(N)c23)cc1 (stereo not shown) [Compound 16, N-(4-(4-amino-7-(tetrahydro-2H-pyran-3-yl)imidazo[5,1-f][1,2,4]triazin-5-yl)benzyl)-5-fluoro-2-methoxybenzamide] |
| 2.5 nM | 3.9 nM | COc1ccc(F)cc1C(=O)NCc1ccc(-c2nc([C@@H]3CCN(C(=O)C4CC4)C3)n3ncnc(N)c23)cc1 [Compound 24, (R)-N-(4-(4-amino-7-(1-(cyclopropanecarbonyl)pyrrolidin-3-yl)imidazo[5,1-f][1,2,4]triazin-5-yl)benzyl)-5-fluoro-2-methoxybenzamide] |
| 1.1 nM | 1.4 nM | COc1ccc(F)cc1C(=O)NCc1ccc(-c2nc([C@H]3CC[C@H](C(=O)O)CC3)n3ncnc(N)c23)cc1 [Compound 15, (1r,4r)-4-(4-amino-5-(4-((5-fluoro-2-methoxybenzamido)methyl)phenyl)imidazo[5,1-f][1,2,4]triazin-7-yl)cyclohexane-1-carboxylic acid] |
| 5.3 nM | 2.6 nM | COc1ccc(F)cc1C(=O)NCc1ccc(-c2nc([C@]3(C)CC[C@](C)(C(=O)O)CC3)n3ccnc(N)c23)cc1 [Compound 41, (1s,4s)-4-(8-amino-1-(4-((5-fluoro-2-methoxybenzamido)methyl)phenyl)imidazo[1,5-a]pyrazin-3-yl)-1,4-dimethylcyclohexane-1-carboxylic acid] |
| 4.3 nM | 1.7 nM | COc1ccc(F)cc1C(=O)NCc1ccc(-c2nc(C3(C(F)(F)F)CC3)n3ccnc(N)c23)cc1 [Compound 42, N-(4-(8-amino-3-(1-(trifluoromethyl)cyclopropyl)imidazo[1,5-a]pyrazin-1-yl)benzyl)-5-fluoro-2-methoxybenzamide] |
| 2.6 nM | 4.6 nM | COc1ccc(F)cc1C(=O)NCc1ccc(-c2nc([C@H]3CC[C@H](CO)CC3)n3ccnc(N)c23)cc1 [Compound 5, N-(4-(8-amino-3-((1r,4r)-4-(hydroxymethyl)cyclohexyl)imidazo[1,5-a]pyrazin-1-yl)benzyl)-5-fluoro-2-methoxybenzamide] |
| 0.8 nM | 1.4 nM | COc1ccc(F)cc1C(=O)NCc1ccc(-c2nc([C@H]3CC[C@H](C(=O)O)CC3)n3ccnc(N)c23)cc1 [Compound 13, (1r,4r)-4-(8-amino-1-(4-((5-fluoro-2-methoxybenzamido)methyl)phenyl)imidazo[1,5-a]pyrazin-3-yl)cyclohexane-1-carboxylic acid] |
| 2.2 nM | 1 nM | COC(=O)C12CCC(c3nc(-c4ccc(CNC(=O)c5cc(F)ccc5OC)cc4)c4c(N)ncnn34)(CC1)CC2 [Compound 28, methyl 4-(4-amino-5-(4-((5-fluoro-2-methoxybenzamido)methyl)phenyl)imidazo[5,1-f][1,2,4]triazin-7-yl)bicyclo[2.2.2]octane-1-carboxylate] |
| 1.5 nM | 1.1 nM | [2H]C([2H])([2H])Oc1ccc(F)cc1C(=O)NCc1ccc(-c2nc(C3CCCOC3)n3ccnc(N)c23)cc1 (stereo not shown) [Compound 25, N-(4-(8-amino-3-(tetrahydro-2H-pyran-3-yl)imidazo[1,5-a]pyrazin-1-yl)benzyl)-5-fluoro-2-(methoxy-dz)benzamide] |
| 1.6 nM | 7.7 nM | COc1ccc(F)cc1C(=O)NCc1ccc(-c2nc([C@]3(C)CC[C@](C)(C(=O)O)CC3)n3ncnc(N)c23)cc1 [Compound 46, (1s,4s)-4-(4-amino-5-(4-((5-fluoro-2-methoxybenzamido)methyl)phenyl)imidazo[5,1-f][1,2,4]triazin-7-yl)-1,4-dimethylcyclohexane-1-carboxylic acid] |
| 11 nM | 3.8 nM | COc1ccc(F)cc1C(=O)NCc1ccc(-c2nc(C(C)C(F)(F)F)n3ncnc(N)c23)cc1 (stereo not shown) [Compound 26, N-(4-(4-amino-7-(1,1,1-trifluoropropan-2-yl)imidazo[5,1-f][1,2,4]triazin-5-yl)benzyl)-5-fluoro-2-methoxybenzamide] |
| 0.6 nM | 3.3 nM | COc1ccc(F)cc1C(=O)NCc1ccc(-c2nc([C@]3(C)CC[C@](C)(C(=O)OC)CC3)n3ccnc(N)c23)cc1 [Compound 39, methyl (1s,4s)-4-(8-amino-1-(4-((5-fluoro-2-methoxybenzamido)methyl)phenyl)imidazo[1,5-a]pyrazin-3-yl)-1,4-dimethylcyclohexane-1-carboxylate] |
| 1.5 nM | 0.6 nM | COc1ccc(F)cc1C(=O)NCc1ccc(-c2nc(C34CCC(CO)(CC3)CC4)n3ccnc(N)c23)cc1 [Compound 35, N-(4-(8-amino-3-(4-(hydroxymethyl)bicyclo[2.2.2]octan-1-yl)imidazo[1,5-a]pyrazin-1-yl)benzyl)-5-fluoro-2-methoxybenzamide] |
| 2.1 nM | 2.9 nM | COC(=O)C12CCC(c3nc(-c4ccc(CNC(=O)c5cc(F)ccc5OC)cc4)c4c(N)nccn34)(CC1)C2 [Compound 38, methyl 4-(8-amino-1-(4-((5-fluoro-2-methoxybenzamido)methyl)phenyl)imidazo[1,5-a]pyrazin-3-yl)bicyclo[2.2.1]heptane-1-carboxylate] |
| 20 nM | 2.4 nM | COc1ccc(F)cc1C(=O)NCc1ccc(-n2c(=O)n([C@H]3CC[C@H](CO)CC3)c3ncnc(N)c32)cc1 [Compound 50, N-(4-(6-amino-9-((1r,4r)-4-(hydroxymethyl)cyclohexyl)-8-oxo-8,9-dihydro-7H-purin-7-yl)benzyl)-5-fluoro-2-methoxybenzamide] |
| 2.4 nM | 6.3 nM | COc1ccc(F)cc1C(=O)NCc1ccc(-c2nc(C3CCOC3)n3ncnc(N)c23)cc1 (stereo not shown) [Compound 17, N-(4-(4-amino-7-(tetrahydrofuran-3-yl)imidazo[5,1-f][1,2,4]triazin-5-yl)benzyl)-5-fluoro-2-methoxybenzamide] |
| 3.4 nM | 0.9 nM | CNC(=O)C12CCC(c3nc(-c4ccc(CNC(=O)c5cc(F)ccc5OC)cc4)c4c(N)nccn34)(CC1)CC2 [Compound 36, 4-(8-amino-1-(4-((5-fluoro-2-methoxybenzamido)methyl)phenyl)imidazo[1,5-a]pyrazin-3-yl)-N-methylbicyclo[2.2.2]octane-1-carboxamide] |
